Here are results for nine compounds from PubChem BioAssay (NCI).

Each structure is given as a SMILES string. “And” between values parts separate entries of the source, which are not always exact repeats. Identical values can stand only once.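 Growth conditions: 96-well plates. Treatment: test compound, 48 hours, 5 concentrations. Analysis: linear interpolation between bracketing concentrations; unreached endpoints set to highest concentration. GI50 marks 50% less growth. At the TGI there is no net growth.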

Experiment in all cases: growth of human tumour cells (NCI), 48 h
For experiment [1], the system named is OVCAR-4 ovarian.
The subject of experiment [2] is SNB-19 CNS.
The subject of experiment [3] is NCI/ADR-RES ovarian.
In experiment [4] the test system is MALME-3M melanoma.
In experiment [5] the test system is T-47D breast.
Experiment [6] deals with MDA-MB-435.
For experiment [7], the system named is CAKI-1 renal.
The subject of experiment [8] is PC-3 prostate.

Regarding `CCN(CC)c1ccc(/C=N/NC(=O)CSc2nc3ccccc3c(=O)n2CCc2ccc(S(N)(=O)=O)cc2)c(O)c1`, the GI50 in experiment [1] was 0.549 µM; in experiment [2] it was 3.72 µM; in experiment [3], above 100 µM; in experiment [4] it was 3.26 µM; in experiment [5], 1.01 µM; in experiment [6] it was 3.89 µM. In addition, the GI50 is 1.84 µM in experiment [7] and 1.83 µM in experiment [8]. Moreover, the TGI in experiment [1], in experiment [2], in experiment [3], in experiment [4], in experiment [5] and in experiment [6] was above 100 µM throughout. Also, the TGI in experiment [7] and in experiment [8] was above 100 µM in each case.

For `Cc1nc([P+](c2ccccc2)(c2ccccc2)c2ccccc2)c(Sc2sc(-c3ccccc3)nc2[P+](c2ccccc2)(c2ccccc2)c2ccccc2)o1`, the GI50 in experiment [1] is 0.952 µM; in experiment [2], 1.6 µM; in experiment [3], 3.7 µM; in experiment [4] it was 1.36 µM; in experiment [5], 0.327 µM; in experiment [6], 1.19 µM. Moreover, the GI50 in experiment [7] was 2.69 µM; in experiment [8], 1.04 µM. For the same compound, the TGI in experiment [1] was found to be 5.82 µM; in experiment [2], 12.2 µM; in experiment [3], 19.8 µM; in experiment [4], 7.13 µM; in experiment [5], 8.81 µM; in experiment [6] it was 3.46 µM. Besides, the TGI in experiment [7] came out at 9.71 µM; in experiment [8], 2.72 µM.

For the compound `C/C(=N\NC(=S)N1CCCCC1)c1ccccn1`, the GI50 in experiment [1] was below 0.01 µM; in experiment [2], 0.158 µM; in experiment [3] it was below 0.01 µM; in experiment [4], 0.145 µM; in experiment [5] it was below 0.01 µM; in experiment [6], 0.208 µM. The GI50 in experiment [7] is 0.103 µM; in experiment [8], below 0.01 µM. The TGI amounted to 4.57 µM in experiment [1]; 14.5 µM in experiment [2]; 6.77 µM in experiment [3]; 3.05 µM in experiment [4]; 5.15 µM in experiment [5]; 5.89 µM in experiment [6]. Also, the TGI in experiment [7] was found to be 5.22 µM; in experiment [8], 12.6 µM.

In the case of `Nc1nccc(-c2c(-c3ccc(F)cc3)ncn2C2CCNCC2)n1`, the GI50 was 1.86 µM and 2.77 µM in experiment [1]; 6.91 µM and 3.96 µM in experiment [2]; > 25 µM and 5.1 µM in experiment [3]; 8.72 µM and 5.23 µM in experiment [4]; 1.55 µM and 4.2 µM in experiment [5]; 2.87 µM and 4.17 µM in experiment [6]. The GI50 in experiment [7] is > 25 µM and 7.29 µM; in experiment [8] it was 13.6 µM and 4.05 µM. In addition, the TGI is > 25 µM and 13.1 µM in experiment [1]; above 25 µM in experiment [2]; above 25 µM in experiment [3]; > 25 µM and 21.4 µM in experiment [4]; above 25 µM in experiment [5]; above 25 µM in experiment [6]. For the same compound, the TGI in experiment [7] and in experiment [8] was above 25 µM each time.

Turning to `O=c1c2c(=NCCN3CCCC3)cc3c(=O)n(CCCN4CCOCC4)c(=O)c4c(-c5ccc(CN6CCCC6)cc5)cc(c(O)n1CCCN1CCOCC1)c2c4-3`, the GI50 is 0.0491 µM in experiment [1]; 0.054 µM in experiment [2]; 0.364 µM in experiment [3]; 0.105 µM in experiment [4]; 0.1 µM in experiment [5]; 0.0395 µM in experiment [6]. Besides, the GI50 was 0.0346 µM in experiment [7] and 0.0278 µM in experiment [8]. The TGI was determined as 0.23 µM in experiment [1]; 1.2 µM in experiment [2]; 9.65 µM in experiment [3]; 0.388 µM in experiment [4]; 0.897 µM in experiment [5]; 0.147 µM in experiment [6]. Further, the results for the TGI in experiment [7] and in experiment [8] were 0.651 µM and 0.168 µM, respectively.

Take `CCN1C/C(=C\c2cc(OC)c(OC)cc2OC)C(=O)/C(=C/c2cc(OC)c(OC)cc2OC)C1`: the GI50 was 3.73 µM in experiment [1]; 4.23 µM in experiment [2]; 3.12 µM in experiment [3]; 1.94 µM in experiment [4]; 2.96 µM in experiment [5]; 2.07 µM in experiment [6]. The GI50 was 2.98 µM in experiment [7] and 4.25 µM in experiment [8]. The TGI in experiment [1] is above 100 µM; in experiment [2], 23.7 µM; in experiment [3] it was above 100 µM; in experiment [4], 3.59 µM; in experiment [5], above 100 µM; in experiment [6], 4.3 µM. For the same compound, the TGI is 6.82 µM in experiment [7] and above 100 µM in experiment [8].

For `NS(=O)(=O)c1ccc(Nc2cc(-c3cccc(O)c3)[nH]n2)cc1`, the GI50 in experiment [1] was 13.5 µM; in experiment [2], above 25 µM; in experiment [3], above 25 µM; in experiment [4], above 25 µM; in experiment [5], 10 µM; in experiment [6] it was above 25 µM. For the same compound, the GI50 in experiment [7] and in experiment [8] was above 25 µM each time. In addition, the TGI in experiment [1], in experiment [2], in experiment [3], in experiment [4], in experiment [5] and in experiment [6] was above 25 µM each time. Further, the TGI in experiment [7] and in experiment [8] was above 25 µM each time.

Regarding `c1cc(NNc2cccc(-c3nn[nH]n3)c2)cc(-c2nn[nH]n2)c1`, the TGI in experiment [1], in experiment [2], in experiment [3], in experiment [4], in experiment [5] and in experiment [6] was above 100 µM throughout. The TGI in experiment [7] and in experiment [8] was above 100 µM throughout.

For `O=S(=O)(NCCCNc1nccc(-c2c(-c3ccc(O)cc3)nc3sccn23)n1)c1ccc(F)cc1`, the GI50 is 3.36 µM in experiment [1]; 4.27 µM in experiment [2]; 4.59 µM in experiment [3]; 0.0391 µM in experiment [4]; 1.39 µM in experiment [5]; 0.245 µM in experiment [6]. For the same compound, the GI50 in experiment [7] is 2.88 µM; in experiment [8] it was 3.11 µM. The TGI was 9.92 µM in experiment [1]; above 100 µM in experiment [2]; above 100 µM in experiment [3]; 3.56 µM in experiment [4]; 3.55 µM in experiment [5]; 4.76 µM in experiment [6]. Further, the TGI is above 100 µM in experiment [7] and 29 µM in experiment [8].
